Publication PMC7805408, “Filaggrin Polymorphisms and the Uptake of Chemicals through the Skin—A Human Experimental Study” (Environmental Health Perspectives, 2021)

Assays:
[1] = Population toxicokinetic analysis of dermal absorption and disposition (three-compartment model, Monolix); format: in vivo, human; details: for Lag time (mean±SD): dermal absorption; for Lag time (mean±SD) / Absorption rate constant (mean±SD): unadjusted; for Absorption rate constant (mean±SD): dermal; for Rate constant K21 (mean ± SD): from the central to the peripheral compartment; for Rate constant K12 (mean ± SD): from the peripheral to the central compartment
Experimental: Dermal absorption and disposition were assessed by population toxicokinetic analysis. A three-compartment structural model representing skin and central and peripheral tissues was used (Figure 2). The skin compartment encompasses a lag time for skin penetration ( Tlag ) and an absorption rate constant ( ka ). Urinary excretion from the central compartment was described by an elimination rate constant ( ke ), and exchange between the central and peripheral compartments was described by two rate constants ( k12 and k21 ). All rate constants are first order.
Figure 2. Compartmental model used in the toxicokinetic analysis: lag time for skin penetration ( Tlag , h), first order skin absorption constant ( Ka , h-1), volume of central compartment (V, L), peripheral compartment (P) first order transfer rate constants ( k12 and k21 , h^−1 ), and first order elimination rate constant (k, h^−1 ).
The input data were the dermally applied dose (nmol) at time zero and the mid–time point (h) and the excretion rate (nmol/h) of each chemical in the urine samples. Subjects excluded from the AUC analysis were also excluded from the toxicokinetic analysis (one FLG null carrier and one wt carrier for oxybenzone).
The software Monolix (version 2019R2; Lixoft) was used to estimate the model parameters. The built-in statistical model consists of an observation model and an individual model based on the structural toxicokinetic model. The observational model was set to a normal distribution, and a residual error model included in the observational model was used as proposed by the software after initial analysis. A lognormally distributed random effect was added to all model parameters. Correlations between parameters were accounted for if proposed by the software. The different genotypes (FLG null/wt, and FLG null/wt CNV20–22/wt CNV23–24) were entered as categorical covariates.

[2] = design: method as in Okereke et al. 1993; details: rats; ref Okereke et al. 1993; cited from earlier work
[3] = tested on: estrogen receptor 1, androgen receptor, and cytochrome P450 aromatase B; design: method as in Blüthgen et al. 2012; details: zebrafish, 84μg/L; ref Blüthgen et al. 2012; cited from earlier work
[4] = design: method as in Santamaria et al. 2020; details: ref Santamaria et al. 2020; cited from earlier work
[5] = ref http://www.popstoolkit.com/tools/HHRA/TDI_USEPA.aspx; cited from earlier work
[6] = tested on: aryl hydrocarbon receptor; design: method as in Medjakovic et al. 2014; details: in vitro; ref Medjakovic et al. 2014; cited from earlier work
[7] = in vivo, po; cited from earlier work
[8] = ref https://efsa.onlinelibrary.wiley.com/doi/pdf/10.2903/j.efsa.2006.61r; cited from earlier work
[9] = FLG null carriers, null/CNV grouping
[10] = FLG null, null vs wt grouping (Table S4)
[11] = FLG null, null/CNV grouping (Table S9)
[12] = FLG wt, null vs wt grouping (Table S4)

COc1ccc(C(=O)c2ccccc2)c(O)c1 [Oxybenzone, (2-Hydroxy-4-methoxyphenyl)-phenylmethanone]
Absorption rate constant (mean ± SD), adjusted for BMI, age and sex ([1]; FLG null (Table S7)): 0.22 ± 0.06 h⁻¹ | Lag time (mean ± SD), adjusted for BMI, age and sex ([1]; FLG null (Table S7)): 0.14 ± 0.18 h | Excretion rate constant K (mean ± SD) ([1]; FLG null (Table S9)): 0.05 ± 0.02 h⁻¹ | Lag time (mean±SD) [1, 9]: 0.07 ± 0.01 h | Absorption rate constant (mean±SD) [1, 9]: 0.23 ± 0.07 h⁻¹ | Dermal absorption rate constant (mean ± SD) [1, 10]: 0.29 ± 0.08 h⁻¹ | Lag time for dermal absorption (mean ± SD) [1, 10]: 0.10 ± 0.02 h | Volume of central compartment (mean ± SD) [1, 11]: 71.5 ± 32.4 L | Absorption rate constant (mean ± SD), adjusted for BMI, age and sex ([1]; FLG wt CNV20–22 (Table S7)): 0.20 ± 0.06 h⁻¹ | Lag time (mean ± SD), adjusted for BMI, age and sex ([1]; FLG wt CNV20–22 (Table S7)): 0.04 ± 0.04 h | Excretion rate constant K (mean ± SD) ([1]; FLG wt CNV20–22 (Table S9)): 0.05 ± 0.01 h⁻¹ | Volume of central compartment (mean ± SD) ([1]; FLG wt CNV20–22 (Table S9)): 81.5 ± 42.7 L | Lag time (mean±SD) ([1]; FLG wt CNV20–22 carriers): 0.04 ± 0.009 h | Absorption rate constant (mean±SD) ([1]; FLG wt CNV20–22 carriers): 0.22 ± 0.08 h⁻¹ | Absorption rate constant (mean ± SD), adjusted for BMI, age and sex ([1]; FLG wt CNV23–24 (Table S7)): 0.13 ± 0.04 h⁻¹ | Lag time (mean ± SD), adjusted for BMI, age and sex ([1]; FLG wt CNV23–24 (Table S7)): 0.13 ± 0.17 h | Excretion rate constant K (mean ± SD) ([1]; FLG wt CNV23–24 (Table S9)): 0.06 ± 0.04 h⁻¹ | Volume of central compartment (mean ± SD) ([1]; FLG wt CNV23–24 (Table S9)): 103 ± 52.36 L | Lag time (mean±SD) ([1]; FLG wt CNV23–24 carriers): 0.23 ± 0.13 h | Absorption rate constant (mean±SD) ([1]; FLG wt CNV23–24 carriers): 0.13 ± .04 h⁻¹ | Dermal absorption rate constant (mean ± SD) [1, 12]: 0.22 ± 0.09 h⁻¹ | Lag time for dermal absorption (mean ± SD) [1, 12]: 0.13 ± 0.07 h | Mean dermal absorption rate constant higher for FLG null carriers than wt carriers with CNV23–24 ([1]; Table 2): 77% | Rate constant K21 (mean ± SD) ([1]; FLG null (Table S9)): 0.01 ± 0.006 h⁻¹ | Rate constant K21 (mean ± SD) ([1]; FLG wt CNV20–22 (Table S9)): 0.01 ± 0.008 h⁻¹ | Rate constant K21 (mean ± SD) ([1]; FLG wt CNV23–24 (Table S9)): 0.007 ± 0.003 h⁻¹ | Rate constant K12 (mean ± SD) ([1]; FLG null (Table S9)): 0.31 ± 0.02 h⁻¹ | Rate constant K12 (mean ± SD) ([1]; FLG wt CNV20–22 (Table S9)): 0.31 ± 0.02 h⁻¹ | Rate constant K12 (mean ± SD) ([1]; FLG wt CNV23–24 (Table S9)): 0.32 ± 0.02 h⁻¹ | Dermal absorption rate constant higher for FLG null compared with wt carriers ([1]; null vs wt grouping (Table S4)): 32% | Share of what was found in urine in the form of the parent compound, free and conjugated with glucuronic acid [2]: About 50% | Expression of estrogen receptor 1, androgen receptor, and cytochrome P450 aromatase B [3]: decreased expression | Effect in mice [4]: affect fetal growth and sex ratio

c1cc2ccc3cccc4ccc(c1)c2c34 [Pyrene, pyrene]
Absorption rate constant (mean ± SD), adjusted for BMI, age and sex ([1]; FLG null (Table S7)): 0.23 ± 0.09 h⁻¹ | Lag time (mean ± SD), adjusted for BMI, age and sex ([1]; FLG null (Table S7)): 0.89 ± 0.15 h | Excretion rate constant K (mean ± SD) ([1]; FLG null (Table S9)): 0.17 ± 0.02 h⁻¹ | Lag time (mean±SD) [1, 9]: 0.91 ± 0.12 h | Absorption rate constant (mean±SD) [1, 9]: 0.16 ± 0.05 h⁻¹ | Dermal absorption rate constant (mean ± SD) [1, 10]: 0.17 ± 0.06 h⁻¹ | Lag time for dermal absorption (mean ± SD) [1, 10]: 0.88 ± 0.13 h | Volume of central compartment (mean ± SD) [1, 11]: 876 ± 344 L | Absorption rate constant (mean ± SD), adjusted for BMI, age and sex ([1]; FLG wt CNV20–22 (Table S7)): 0.23 ± 0.10 h⁻¹ | Lag time (mean ± SD), adjusted for BMI, age and sex ([1]; FLG wt CNV20–22 (Table S7)): 1.06 ± 0.17 h | Excretion rate constant K (mean ± SD) ([1]; FLG wt CNV20–22 (Table S9)): 0.18 ± 0.04 h⁻¹ | Volume of central compartment (mean ± SD) ([1]; FLG wt CNV20–22 (Table S9)): 954 ± 410 L | Lag time (mean±SD) ([1]; FLG wt CNV20–22 carriers): 1.06 ± 0.16 h | Absorption rate constant (mean±SD) ([1]; FLG wt CNV20–22 carriers): 0.14 ± 0.03 h⁻¹ | Absorption rate constant (mean ± SD), adjusted for BMI, age and sex ([1]; FLG wt CNV23–24 (Table S7)): 0.14 ± 0.05 h⁻¹ | Lag time (mean ± SD), adjusted for BMI, age and sex ([1]; FLG wt CNV23–24 (Table S7)): 1.34 ± 0.32 h | Excretion rate constant K (mean ± SD) ([1]; FLG wt CNV23–24 (Table S9)): 0.18 ± 0.02 h⁻¹ | Volume of central compartment (mean ± SD) ([1]; FLG wt CNV23–24 (Table S9)): 1232 ± 541 L | Lag time (mean±SD) ([1]; FLG wt CNV23–24 carriers): 1.41 ± 0.29 h | Absorption rate constant (mean±SD) ([1]; FLG wt CNV23–24 carriers): 0.11 ± 0.03 h⁻¹ | Dermal absorption rate constant (mean ± SD) [1, 12]: 0.15 ± 0.06 h⁻¹ | Lag time for dermal absorption (mean ± SD) [1, 12]: 1.20 ± 0.25 h | Mean dermal absorption rate constant higher for FLG null carriers than wt carriers with CNV23–24 ([1]; Table 2): 45% | Rate constant K21 (mean ± SD) ([1]; FLG null (Table S9)): 0.02 ± 0.0008 h⁻¹ | Rate constant K21 (mean ± SD) ([1]; FLG wt CNV20–22 (Table S9)): 0.02 ± 0.0006 h⁻¹ | Rate constant K21 (mean ± SD) ([1]; FLG wt CNV23–24 (Table S9)): 0.02 ± 0.0005 h⁻¹ | Rate constant K12 (mean ± SD) ([1]; FLG null (Table S9)): 0.12 ± 0.04 h⁻¹ | Rate constant K12 (mean ± SD) ([1]; FLG wt CNV20–22 (Table S9)): 0.12 ± 0.03 h⁻¹ | Rate constant K12 (mean ± SD) ([1]; FLG wt CNV23–24 (Table S9)): 0.11 ± 0.02 h⁻¹ | tolerable daily intake (TDI) [5]: 0.03 mg/kg

Cc1cc(C)nc(Nc2ccccc2)n1 [Pyrimethanil, 4,6-dimethyl-N-phenyl-2-pyrimidinamine]
Dermal absorption rate constant higher for FLG null compared with wt carriers ([1]; human, in vivo): 18% | Mean dermal absorption rate constant higher for FLG null carriers than wt carriers with CNV23–24 ([1]; human, in vivo): 50% | aryl hydrocarbon receptor activity [6]: aryl hydrocarbon receptor agonist | Share of the compound found in urine as OH-pyrimethanil [7]: 80% | acute toxicity [8]: low acute toxicity
